Source: patent publication US20250243196A1, “CITRON KINASE INHIBITORS” (The Cleveland Clinic Foundation, priority 2021, published 2025)

Molecular target: Citron kinase (Homo sapiens (Human), UniProt O14578)
Test: Radiometric citron kinase assay (Eurofins Cat #16-040KP)
Type: biochemical
Settings: mean of at least two independent assays; read-out: Radiometric CitK IC50
Description: In some embodiments, the step of contacting the sample with the compound comprises administering the compound to a subject (e.g., a subject) suffering from cancer. Methods of determining kinase inhibition are well known in the art. For example, kinase activity of an enzyme and the inhibitory capacity of a test compound can be determined by measuring enzyme specific phosphorylation of a substrate. Commercial assays and kits can be employed. For example, kinase inhibition can be determined using a radiometric binding assay, such as using KinaseProfiler™ technology (Eurofins Discovery). This assay method directly detects product formation without the use of modified substrates or coupling enzymes. Test compounds are incubated with kinase, substrate, required cofactors and radioisotope labeled ATP. Following incubation, unreacted radioactive ATP is removed by washing and incorporation of the radiolabeled phosphate into the kinase substrate is assayed to detect phosphoryltransferase activity, which is directly proportional to the amount of phosphorylated substrate. Inhibition of the kinase by a kinase inhibitor prevents phosphorylation of the substrate and thereby limits the incorporation of radiolabeled phosphate. Such an assay is compatible with a microwell assay format, allowing simultaneous determination of IC50 of multiple compounds.
Compounds were screened for biochemical kinase activity (Eurofins Discovery, France) using one of two assays. […] All values in Table 1 are the mean of at least two independent assays.

Sequence of Citron kinase (O14578 whole entry): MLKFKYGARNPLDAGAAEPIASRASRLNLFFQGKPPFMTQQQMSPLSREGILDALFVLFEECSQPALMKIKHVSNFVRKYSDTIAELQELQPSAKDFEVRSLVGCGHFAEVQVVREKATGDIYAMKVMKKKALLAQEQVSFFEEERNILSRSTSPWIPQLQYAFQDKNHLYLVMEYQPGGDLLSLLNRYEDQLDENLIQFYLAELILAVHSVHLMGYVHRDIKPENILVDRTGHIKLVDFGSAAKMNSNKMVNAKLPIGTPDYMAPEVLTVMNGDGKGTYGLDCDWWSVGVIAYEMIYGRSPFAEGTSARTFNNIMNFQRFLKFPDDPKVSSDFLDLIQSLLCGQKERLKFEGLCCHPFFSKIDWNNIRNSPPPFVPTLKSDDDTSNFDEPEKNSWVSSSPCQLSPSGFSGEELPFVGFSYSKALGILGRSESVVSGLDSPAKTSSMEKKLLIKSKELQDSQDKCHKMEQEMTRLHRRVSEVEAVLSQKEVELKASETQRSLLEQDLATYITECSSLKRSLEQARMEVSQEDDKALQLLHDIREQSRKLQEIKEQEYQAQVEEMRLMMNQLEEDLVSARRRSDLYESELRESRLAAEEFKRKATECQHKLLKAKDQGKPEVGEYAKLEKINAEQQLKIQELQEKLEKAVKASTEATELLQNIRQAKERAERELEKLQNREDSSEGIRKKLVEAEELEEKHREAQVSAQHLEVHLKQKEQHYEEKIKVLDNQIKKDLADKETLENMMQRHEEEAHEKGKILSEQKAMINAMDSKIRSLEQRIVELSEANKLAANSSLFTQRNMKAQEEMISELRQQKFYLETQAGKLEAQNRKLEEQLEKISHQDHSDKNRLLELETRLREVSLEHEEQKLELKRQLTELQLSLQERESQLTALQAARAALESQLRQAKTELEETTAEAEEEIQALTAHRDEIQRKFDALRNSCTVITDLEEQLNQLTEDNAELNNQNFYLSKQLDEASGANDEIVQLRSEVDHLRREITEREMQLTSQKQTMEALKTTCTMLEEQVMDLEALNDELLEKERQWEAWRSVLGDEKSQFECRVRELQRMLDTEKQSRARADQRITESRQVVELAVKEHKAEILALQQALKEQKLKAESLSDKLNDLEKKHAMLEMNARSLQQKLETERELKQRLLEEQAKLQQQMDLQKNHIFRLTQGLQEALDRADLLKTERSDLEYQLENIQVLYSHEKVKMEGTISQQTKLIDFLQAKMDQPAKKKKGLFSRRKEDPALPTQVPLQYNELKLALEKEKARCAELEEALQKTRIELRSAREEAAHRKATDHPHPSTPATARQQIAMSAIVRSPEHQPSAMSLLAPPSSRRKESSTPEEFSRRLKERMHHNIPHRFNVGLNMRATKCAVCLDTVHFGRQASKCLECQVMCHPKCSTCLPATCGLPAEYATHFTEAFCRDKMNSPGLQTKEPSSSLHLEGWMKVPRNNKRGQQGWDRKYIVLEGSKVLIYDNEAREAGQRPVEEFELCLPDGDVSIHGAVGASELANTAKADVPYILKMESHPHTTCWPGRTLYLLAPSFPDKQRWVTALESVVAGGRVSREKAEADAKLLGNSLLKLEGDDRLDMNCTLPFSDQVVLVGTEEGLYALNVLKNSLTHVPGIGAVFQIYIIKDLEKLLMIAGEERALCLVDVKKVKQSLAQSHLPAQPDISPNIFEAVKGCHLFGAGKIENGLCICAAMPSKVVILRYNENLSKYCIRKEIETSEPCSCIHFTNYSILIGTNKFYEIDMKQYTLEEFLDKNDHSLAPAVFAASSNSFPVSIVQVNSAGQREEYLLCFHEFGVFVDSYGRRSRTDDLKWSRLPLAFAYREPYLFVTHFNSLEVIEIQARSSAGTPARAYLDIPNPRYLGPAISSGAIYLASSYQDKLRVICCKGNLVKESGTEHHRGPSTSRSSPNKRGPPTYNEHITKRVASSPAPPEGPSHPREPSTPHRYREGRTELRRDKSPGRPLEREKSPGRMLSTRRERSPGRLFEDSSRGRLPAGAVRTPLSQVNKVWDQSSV

Row | IC50 | Compound
1 | 0.053 µM | Cc1cc2c(-c3ccc(NC(=O)[C@H](N)CC(C)(C)C)cc3OC(F)F)ccnc2[nH]1 [Compound F-169, (2R)-2-Amino-N-[3-(difluoromethoxy)-4-(2-methyl-1H-pyrrolo[2,3-b]pyridin-4-yl)phenyl]-4,4-dimethyl-pentanamide]
2 | 3 µM | Cc1cc2c(-c3nc(NC(=O)[C@H](N)C(C)(C)C)sc3C)ccnc2[nH]1 [Compound F-117, (2R)-2-Amino-3,3-dimethyl-N-[5-methyl-4-(2-methyl-1H-pyrrolo[2,3-b]pyridin-4-yl)thiazol-2-yl]butanamide]
3 | 0.0646 µM | CC(C)(C)[C@@H](N)C(=O)Nc1ccc(-c2ccnc3[nH]ccc23)cc1F [Compound F-71, (2R)-2-Amino-N-[2-fluoro-4-(1H-pyrrolo[2,3-b]pyridin-4-yl)phenyl]-3,3-dimethyl-butanamide]
4 | 0.301 µM | COc1cc(-c2ccnc3[nH]ccc23)ccc1NC(=O)[C@H](N)Cc1ccccc1 [Compound F-131, (2R)-2-Amino-N-[2-methoxy-4-(1H-pyrrolo[2,3-b]pyridin-4-yl)phenyl]-3-phenyl-propanamide]
5 | 2.47 µM | COCCC(N)C(=O)Nc1ccc(-c2ccnc3[nH]ccc23)cc1 (centres unmarked) [Compound F-26, 2-Amino-4-methoxy-N-[4-(1H-pyrrolo[2,3-b]pyridin-4-yl)phenyl]butanamide]
6 | 0.0575 µM | CCc1cc(NC(=O)[C@H](N)C(C)(C)C)ccc1-c1ccnc2[nH]ccc12 [Compound F-88, (2R)-2-Amino-N-[3-ethyl-4-(1H-pyrrolo[2,3-b]pyridin-4-yl)phenyl]-3,3-dimethyl-butanamide]
7 | 0.12 µM | Cc1nc(NC(=O)[C@H](N)CC(C)(C)C)ccc1-c1ccnc2[nH]c(C(F)F)cc12 [Compound F-152, (2R)-2-Amino-N-[5-[2-(difluoromethyl)-1H-pyrrolo[2,3-b]pyridin-4-yl]-6-methyl-2-pyridyl]-4,4-dimethyl-pentanamide]
8 | 0.415 µM | Cc1cc2c(-c3ccc(NC(=O)[C@H](N)Cc4ccccc4)cc3)ccnc2[nH]1 [Compound F-92, (2R)-2-Amino-N-[4-(2-methyl-1H-pyrrolo[2,3-b]pyridin-4-yl)phenyl]-3-phenyl-propanamide]
9 | 3 µM | N[C@@H](Cc1ccccc1)C(=O)Nc1ccc(-c2ccnc3[nH]ccc23)c(C(F)(F)F)c1 [Compound F-129, (2S)-2-Amino-3-phenyl-N-[4-(1H-pyrrolo[2,3-b]pyridin-4-yl)-3-(trifluoromethyl)phenyl]propanamide]
10 | 0.38 µM | Cc1cc(NC(=O)[C@H](N)C(C)(C)C)ccc1-c1ccnc2[nH]c(C(F)(F)F)cc12 [Compound F-100, (2R)-2-Amino-3,3-dimethyl-N-[3-methyl-4-[2-(trifluoromethyl)-1H-pyrrolo[2,3-b]pyridin-4-yl]phenyl]butanamide]
11 | 0.126 µM | Cc1cc2c(-c3ccc(NC(=O)[C@@H](N)CC(C)(C)C)cc3C)ccnc2[nH]1 [Compound F-158, (2S)-2-Amino-4,4-dimethyl-N-[3-methyl-4-(2-methyl-1H-pyrrolo[2,3-b]pyridin-4-yl)phenyl]pentanamide]
12 | 0.461 µM | Cc1cc2c(-c3ccc(NC(=O)[C@H](N)C(C)(C)F)cc3C)ccnc2[nH]1 [Compound F-173, (2S)-2-Amino-3-fluoro-3-methyl-N-[3-methyl-4-(2-methyl-1H-pyrrolo[2,3-b]pyridin-4-yl)phenyl]butanamide]
13 | 0.024 µM | Cc1c(-c2ccnc3[nH]c(C(F)(F)F)cc23)ccc(NC(=O)[C@H](N)CC(C)(C)C)c1F [Compound F-147, (2R)-2-Amino-N-[2-fluoro-3-methyl-4-[2-(trifluoromethyl)-1H-pyrrolo[2,3-b]pyridin-4-yl]phenyl]-4,4-dimethyl-pentanamide]
14 | 0.129 µM | Cc1cc2c(-c3csc(NC(=O)C(N)C4(C(F)(F)F)CC4)n3)ccnc2[nH]1 (centres unmarked) [Compound F-115, 2-Amino-N-[4-(2-methyl-1H-pyrrolo[2,3-b]pyridin-4-yl)thiazol-2-yl]-2-[1-(trifluoromethyl)cyclopropyl]acetamide]
